Experimental data: patent US12427131B2, “Stimulators and/or activators of soluble guanylate cyclase (sGC) in combination with an inhibitor of neutral endopeptidase (NEP inhibitor) and/or an angiotensin AII antagonist and the use thereof” (BAYER PHARMA AKTIENGESELLSCHAFT, priority 2015, dated 2025)

Key:
[1] = test system: conscious rats; assay: Radiotelemetric measurement of blood pressure and heart rate of conscious rats; assay type: in vivo, rat
Excerpt: Radiotelemetric Measurement of Blood Pressure and Heart Rate of Conscious Rats
A commercially available telemetry system from Data Sciences International DSI, USA, was employed for the measurements on conscious rats (Wistar strain Unilever/WU or Spontaneous Hypertensive Rat/SHR) described below. The system consists of 3 main components: (1) implantable transmitters (PhysioTel® telemetry transmitter), (2) receivers (PhysioTel® receiver), which are linked via a multiplexer (DSI Data Exchange Matrix) to a (3) data acquisition computer. The telemetry system makes it possible to continuously record blood pressure, heart rate and body motion of conscious animals in their usual habitat.
The studies are conducted on adult female rats with a body weight of >200 g. After transmitter implantation, the experimental animals are housed singly in type III Makrolon® cages. They have free access to standard feed and water. The day/night rhythm in the test laboratory is set by changing the illumination of the room.
The telemetry transmitters used (e.g. PA-C40 HD-S10, DSI) are surgically implanted under aseptic conditions in the experimental animals at least 14 days before the first experimental use.
For the implantation, the fasted animals are anesthetized with isoflurane (IsoFlo®, Abbott, initiation 5%, maintenance 2%) and shaved and disinfected over a large area of their abdomens. After the abdominal cavity has been opened along the linea alba, the liquid-filled measuring catheter of the system is inserted into the descending aorta in the cranial direction above the bifurcation and fixed with tissue glue (Vetbond™, 3M). The transmitter housing is fixed intraperitoneally to the abdominal wall muscle, and the wound is closed layer by layer. Post-operatively, an antibiotic (Ursocyclin® 10%, 60 mg/kg s.c., 0.06 ml/100 g body weight, Serumwerk Bernburg AG, Germany) for infection prophylaxis and an analgesic (Rimadyl®, 4 mg/kg s.c., Pfizer, Germany) are administered.
Unless stated otherwise, the substances to be studied are administered orally to a group of animals in each case (n=6). In accordance with an administration volume of 2 ml/kg of body weight, the test substances are dissolved in suitable solvent mixtures. A solvent-treated group of animals is used as control.
The telemetry measuring system is configured for 24 animals.
Each of the instrumented rats living in the system is assigned a separate receiving antenna (RPC-1 Receiver, DSI). The implanted senders can be activated externally via an installed magnetic switch and are switched to transmission during the pre-run of the experiment. The signals emitted can be detected online by a data acquisition system (Dataquest™ A.R.T. for Windows, DSI or Ponemah, DSI) and processed accordingly.
In the standard procedure, the following are measured for 10-second periods in each case: (1) systolic blood pressure (SBP), (2) diastolic blood pressure (DBP), (3) mean arterial pressure (MAP), (4) heart rate (HR) and (5) activity (ACT). These parameters are measured over 24 hours after administration.
The acquisition of measurements is repeated under computer control at 5-minute intervals. The source data obtained as absolute values are corrected in the diagram with the currently measured barometric pressure (Ambient Pressure Reference Monitor, APR-1, DSI).
After the end of the experiment, the acquired individual data are sorted using the analysis software (Dataquest™ A.R.T. 4.1 Analysis or Ponemah, DSI). The 2 hour time point before substance administration is assumed as the blank value.
The data are smoothed over a presettable period by determination of the means (30 minute mean).

[2] = patients with heart failure, phase III; cited from earlier work
[3] = healthy subjects and hypertensive patients; cited from earlier work
[4] = compound of the formula (6) alone, oral 0.3 mg/kg
[5] = compound of the formula (29) alone, oral 3 mg/kg
[6] = compound of the formula (29) alone, oral 10 mg/kg

Molecule: COC(=O)Nc1c(N)nc(-c2nn(Cc3ccccc3F)c3ncc(F)cc23)nc1N [formula (6), methyl {4,6-diamino-2-[5-fluoro-1-(2-fluorobenzyl)-1H-pyrazolo[3,4-b]pyridine-3-yl]pyrimidin-5-yl}carbamate]
- decrease in the mean arterial blood pressure [1, 4]: ca. −10%
- heart rate [1, 4]: transient increase in heart rate
- hemodynamic effects (blood pressure, heart rate) ([1]; compound of the formula (6) alone, oral dose 0.1 mg/kg): no hemodynamic effects

Molecule: C[C@H]([C@H](C(=O)Nc1cc(C(CC(=O)O)C2CC2)ccc1Cl)c1ccc(Cl)cc1)C(F)(F)F (stereo partly drawn) [formula (29), 3-(4-chloro-3-{[(2S,3R)-2-(4-chlorophenyl)-4,4,4-trifluoro-3-methylbutanoyl]amino}phenyl)-3-cyclopropylpropanoic acid]
- heart rate ([1]; compound of the formula (29) alone, oral 1 mg/kg): reflex tachycardia
- decrease in the mean arterial blood pressure [1, 5]: ca. −10%
- heart rate [1, 5]: associated reflex tachycardia
- decrease in the mean arterial blood pressure [1, 6]: ~15%
- heart rate [1, 6]: associated reflex tachycardia

Molecule: trisodium [3-((1S,3R)-1-biphenyl-4-ylmethyl-3-ethoxycarbonyl-1-butylcarbamoyl)propionate-(S)-3′-methyl-2′-(pentanoyl{2″-(tetrazol-5-ylate)biphenyl-4′-ylmethyl}amino)butyrate] hemipentahydrate [LCZ696]
- risk of death and hospitalization [2]: reduction in the risk of death and hospitalization
- ANP and cGMP [3]: increase in ANP and cGMP
- renin and angiotensin [3]: compensatory increase in renin and angiotensin
